# According to patent publication US10914725B2, “Culture medium additive, culture medium composition, and method for culturing cells or tissue using same” (NISSAN CHEMICAL INDUSTRIES, LTD., priority 2015, dated 2021):
# What was measured:
# Type in all cases: cell-based
# [1] = test system: Human liver cancer cell line HepG2; assay: Evaluation of hepatotoxic substance by high content analysis (Experimental Example 9); conditions: for average cell number per sphere / average dead cell number in sphere / average sphere number per 20 mm^2 / projected area: 0.03 (w/v)% low-molecular agar medium, 2 days with flutamide
# Protocol: (§1) By a method similar to the preparation method of medium composition of Experimental Example 1, a medium composition containing 10 (v/v) % FBS and 0.03 (w/v) % of low-molecular agar (“ultraagar Ena”, manufactured by InaFood Industry) in DMEM (manufactured by Wako Pure Chemical Industries, Ltd.) was prepared. Human liver cancer cell line HepG2 (manufactured by DS PHARMA BIOMEDICAL CO., LTD.) was suspended in the above-mentioned medium composition containing low-molecular agar at 11,000 cells/mL. The above-mentioned cell suspension was dispensed to the wells of a 96 well flat bottom ultra-low attachment surface microplate (manufactured by Corning Incorporated, #3474) at 90 μL per 1 well, and the plate was cultured in a standing state in a CO2 incubator (37° C., 5% CO2) for 3 days. On day 3 of culture, flutamide (manufactured by Sigma-Aldrich) was added by 10 μL per 1 well. Successively, the plate was further cultured in a standing state in a CO2 incubator (37° C., 5% CO2) for 2 days. As a comparison control, HepG2 cells were suspended in DMEM containing 10 (v/v) % FBS and the suspension was dispensed to a 96 well flat bottom adhesion surface microplate (manufactured by Corning Incorporated, #3585), and a similar operation was performed.
# Then, a solution of […] of Hoechst 33342 (manufactured by Invitrogen) in DMEM (phenol red, L-glutamine free) (manufactured by Wako Pure Chemical Industries, Ltd.) was prepared, and added, at 10 μL per 1 well, to each culture after static culture for 5 days using the above-mentioned low-molecular agar-containing medium and comparison control, and the mixture was stood in a CO2 incubator (37° C., 5% CO2) for 45 min. Successively, a solution of 20 μg/mL Propidium Iodide (manufactured by BIOMOL) in DMEM (phenol red, L-glutamine free) (manufactured by Wako Pure Chemical Industries, Ltd.) was prepared and added at 10 μL per 1 well, and the culture medium was suspended. The plate was centrifuged at 1,500 rpm for 1 min, and high content analysis was performed by cell image analysis using a cell imaging apparatus (“ArrayScan VTI HCS Reader”, manufactured by Thermo Fisher Scientific). At that time, observation was performed with 20 fields of view per well using a ×10 objective lens, cell outline and cell nucleus were detected from Hoechst33342 fluorescence image, and dead cells were detected from propidium iodide fluorescence image. In addition, 50% inhibitory concentration (μM) of flutamide by high content analysis was calculated from the number of cells constituting the spheres, with the value without addition of flutamide as 0% sphere formation inhibitory rate.
# (§2) The number of constituent cells of HepG2 cell spheres, sphere number, projected area of sphere (size) (μm^2) and the dead cell number in the sphere, obtained from the cell imaging analysis, are shown in Table 26. Furthermore, the relative cell number when the amount of luminescence without addition of the anticancer agent is 100 was determined from the measurement results of the surviving cell number by luminescence, using the intracellular ATP as an index, and shown in Table 27. In addition, the 50% inhibitory concentration (μM) of flutamide calculated from the amount of luminescence based on intracellular ATP and constituent cell number obtained by high content analysis are shown in Table 28.
# [2] = test system: Human liver cancer cell line HepG2; assay: Evaluation of hepatotoxic substance by CellTiter-Glo cell survival assay (Experimental Example 9); conditions: for IC50: Homo sapiens, HepG2, cell survival assay by luminescence, read-out: 50% inhibitory concentration
# Protocol: as §1
# CellTiter-Glo Luminescent Cell Viability Assay (manufactured by Promega) (100 μL) was added to the low-molecular agar-containing culture medium and comparison control, the mixture was stood for 10 min at room temperature, and the amount of luminescence was measured by a microplate reader (“FlexStation 3”, manufactured by Molecular Devices) and according to the protocol recommended by Promega. The amount of luminescence of the medium alone was subtracted, whereby the number of viable cells was measured. In addition, 50% inhibitory concentration (μM) of flutamide by the amount of luminescence was calculated with the number of viable cells when flutamide was not added as 0% inhibition rate.
# as §2
# [3] = test system: human ovarian cancer cell line SKOV3; assay: Cell proliferation test by dispersing SKOV3 cells with growth factors (Experimental Example 4); conditions: 10 days
# Protocol: By a method similar to the preparation method of medium composition in Analysis Example 1, a medium composition containing 10 (v/v) % FBS, and 0.03 (w/v) % of low-molecular agar in DMEM (manufactured by Wako Pure Chemical Industries, Ltd.) was prepared.
# Then, human ovarian cancer cell line SKOV3 (manufactured by DS PHARMA BIOMEDICAL CO., LTD.) was suspended in the above-mentioned medium composition containing low-molecular agar at 37,000 cells/mL, and dispensed to the wells of a 96 well flat plane ultra-low attachment surface microplate (manufactured by Corning Incorporated, #3474) at 135 μL per 1 well. The plate was stood in a CO2 incubator (37° C., 5% CO2), and a growth factor was added the next day. A similar operation was performed with 10 (v/v) % FBS-containing DMEM free of low-molecular agar. As a growth factor, human heparin bindability epithelial cell growth factor (hHB-EGF) (manufactured by PeproTech, Inc.) at a final concentration of 30 ng/mL or 100 ng/mL, human epithelial cell growth factor (hEGF) (manufactured by PeproTech, Inc.) and human transforming growth factor α (hTGFα) (manufactured by PeproTech, Inc.) each at a final concentration of 1 ng/mL, 3 ng/mL or 10 ng/mL were added by 15 μL per 1 well.
# Successively, the plate was cultured in a standing state in a CO2 incubator (37° C., 5% CO2) for 10 days. As a negative control, DMEM in an amount equal to that of a growth factor was added. CellTiter-Glo Luminescent Cell Viability Assay (manufactured by Promega) (100 μL) was added to the cell culture medium after culturing for 10 days, stood for 10 min at room temperature, and the amount of luminescence was measured by a microplate reader (“FlexStation 3”, manufactured by Molecular Devices) and according to the protocol recommended by Promega. The amount of luminescence of the medium composition alone was subtracted, whereby the number of viable cells was measured.
# The relative cell number when the amount of luminescence of the negative control is 1 was determined from the amount of luminescence (corresponding to the number of SKOV3 cells) after culturing for 10 days after the addition of the growth factor, and shown in Table 11.
molecule,measurement,setting,value
CC(C)C(=O)Nc1ccc([N+](=O)[O-])c(C(F)(F)F)c1 [flutamide],IC50,"[1]; Homo sapiens, HepG2, high content analysis by cell image analysis, number of cells constituting the spheres, low-molecular agar-containing medium, read-out: 50% inhibitory concentration",73.4 µM
same,average cell number per sphere,[1]; flutamide 0.8 μM,7.977
same,average dead cell number in sphere,[1]; flutamide 0.8 μM,0.06
same,average sphere number per 20 mm^2,[1]; flutamide 0.8 μM,190.7
same,projected area,[1]; flutamide 0.8 μM,1988 μm^2
same,average cell number per sphere,[1]; flutamide 4 μM,8.89
same,average dead cell number in sphere,[1]; flutamide 4 μM,0.037
same,average sphere number per 20 mm^2,[1]; flutamide 4 μM,145.3
same,projected area,[1]; flutamide 4 μM,2180 μm^2
same,average cell number per sphere,[1]; flutamide 20 μM,9.263
same,average dead cell number in sphere,[1]; flutamide 20 μM,0.067
same,average sphere number per 20 mm^2,[1]; flutamide 20 μM,129.7
same,projected area,[1]; flutamide 20 μM,2403 μm^2
same,average cell number per sphere,[1]; flutamide 100 μM,3.76
same,average dead cell number in sphere,[1]; flutamide 100 μM,0.007
same,average sphere number per 20 mm^2,[1]; flutamide 100 μM,153.7
same,projected area,[1]; flutamide 100 μM,861 μm^2
same,average cell number per sphere,[1]; flutamide 500 μM,1.567
same,average dead cell number in sphere,[1]; flutamide 500 μM,1.163
same,average sphere number per 20 mm^2,[1]; flutamide 500 μM,7.3
same,projected area,[1]; flutamide 500 μM,408 μm^2
same,IC50,"[2]; comparison control (DMEM, 10% FBS, adhesion surface plate)",51.7 µM
same,IC50,[2]; low-molecular agar containing medium,53.6 µM
same,relative cell number (no addition = 100),"[2]; flutamide 0.8 μM, comparison control (DMEM, 10% FBS, adhesion surface plate)",100.2
same,relative cell number (no addition = 100),"[2]; flutamide 0.8 μM, low-molecular agar-containing medium",109.6
same,relative cell number (no addition = 100),"[2]; flutamide 4 μM, comparison control (DMEM, 10% FBS, adhesion surface plate)",109.6
same,relative cell number (no addition = 100),"[2]; flutamide 4 μM, low-molecular agar-containing medium",98.7
same,relative cell number (no addition = 100),"[2]; flutamide 20 μM, comparison control (DMEM, 10% FBS, adhesion surface plate)",93.5
same,relative cell number (no addition = 100),"[2]; flutamide 20 μM, low-molecular agar-containing medium",89.8
same,relative cell number (no addition = 100),"[2]; flutamide 100 μM, comparison control (DMEM, 10% FBS, adhesion surface plate)",22.5
same,relative cell number (no addition = 100),"[2]; flutamide 100 μM, low-molecular agar-containing medium",22.4
same,relative cell number (no addition = 100),"[2]; flutamide 500 μM, comparison control (DMEM, 10% FBS, adhesion surface plate)",15.4
same,relative cell number (no addition = 100),"[2]; flutamide 500 μM, low-molecular agar-containing medium",8.1
hTGFα: human transforming growth factor α (PeproTech),relative cell number (negative control = 1),"[3]; growth factor 1 ng/mL, low-molecular agar 0 (w/v)%",1.448
same,relative cell number (negative control = 1),"[3]; growth factor 1 ng/mL, low-molecular agar 0.03 (w/v)%",1.371
same,relative cell number (negative control = 1),"[3]; growth factor 3 ng/mL, low-molecular agar 0 (w/v)%",1.445
same,relative cell number (negative control = 1),"[3]; growth factor 3 ng/mL, low-molecular agar 0.03 (w/v)%",1.916
same,relative cell number (negative control = 1),"[3]; growth factor 10 ng/mL, low-molecular agar 0 (w/v)%",1.512
same,relative cell number (negative control = 1),"[3]; growth factor 10 ng/mL, low-molecular agar 0.03 (w/v)%",2.167
